Experimental data from the supplement of paper PMC3974653.
Structures can show the parent of a compound that is named as a salt.

System: MTT (mouse pheochromocytoma)
Test: IC50 of cell viability (ATP content)
Conditions: (24 or 48 h)
Procedure, shortened: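 MTT mouse pheochromocytoma cells (5 µl of 200,000 cells/ml per well, white 1536-well plates, DMEM with 5% FBS and 1% horse serum) were cultured overnight at 37°C, 5% CO2. They then received 23 nl library compound in DMSO by pintool at 8 concentrations (final 0.5 nM to 46 µM) for 24 or 48 hrs. CellTiter-Glo ATP luminescence was read after 15 minutes. Signals were normalised to positive-control (100% inhibition) and DMSO (0%) wells, and IC50 came from a four-parameter logistic fit.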

Structure (SMILES) | IC50 of cell viability
CC(C)(O)c1ccccc1CC[C@H](SCC1(CC(=O)[O-])CC1)c1cccc(/C=C/c2ccc3ccc(Cl)cc3n2)c1 [MONTELUKAST SODIUM] | > 46 µM
c1ccc2sc(SN3CCOCC3)nc2c1 [MORPHOLINYLMERCAPTOBENZOTHIAZOLE] | > 46 µM
CCOc1cc(N)c(Cl)cc1C(=O)NCC1CN(Cc2ccc(F)cc2)CCO1 (configuration not stated) [MOSAPRIDE CITRATE] | > 46 µM
O=C(O)C(O)C(O)C(O)C(O)C(=O)O (configuration not stated) [MUCIC ACID] | > 46 µM
C/C(=C\C(=O)OCCCCCCCCC(=O)O)C[C@@H]1OC[C@H](C[C@@H]2O[C@H]2[C@@H](C)[C@H](C)O)[C@@H](O)[C@H]1O [MUPIROCIN] | > 46 µM
CCCCCCCCCCCCCCNCCO [MYRALACTUM] | > 46 µM
CO[C@@H]1[C@@H]([C@H](C)[C@@H]2O[C@@]3(CC[C@@](C)([C@H]4CC[C@@](C)([C@H]5O[C@H]([C@H]6O[C@](C)(O)[C@H](C)C[C@@H]6C)C[C@H]5O[C@H]5C[C@@H](OC)[C@H](OC)[C@@H](C)O5)O4)O3)C[C@@H](O)[C@@H]2C)O[C@@](O)(CC(=O)[O-])[C@H](C)[C@H]1OC [Maduramicin ammonium] | > 46 µM
NCc1ccc([S+](N)(=O)[O-])cc1 [Mafenide hydrochloride] | > 46 µM
CCOC(=O)CC(SP(=S)(OC)OC)C(=O)OCC (configuration not stated) [Malathion] | > 46 µM
O=C(O)/C=C/C(=O)Nc1ccc([S+](=O)([O-])Nc2nccs2)cc1 [Maleilsulfatiazol] | > 46 µM
OCC1OC(OC2C(CO)OC(OC3C(CO)OC(O)C(O)C3O)C(O)C2O)C(O)C(O)C1O (configuration not stated) [Maltotriose] | > 46 µM
O=C1OC2C(O)C(O)OC2C1O (configuration not stated) [Mannuronic acid lactone] | > 46 µM
Cc1nnc(C(C)C)n1C1C[C@H]2CC[C@@H](C1)N2CC[C@H](NC(=O)C1CCC(F)(F)CC1)c1ccccc1 (some centres not stated) [Maraviroc] | > 46 µM
CN1CCN(c2c(F)cc3c(=O)c(C(=O)O)cn4c3c2OCN4C)CC1 [Marbofloxacin] | > 46 µM
C=C1/C(=C\C=C2/CCC[C@@]3(C)[C@@H]([C@H](C)OCCC(C)(C)O)CC[C@@H]23)C[C@@H](O)C[C@@H]1O [Maxacalcitol] | > 46 µM
CC(N[NH3+])c1ccccc1 (configuration not stated) [Mebanazine] | > 46 µM
CCN(CCCCOC(=O)c1ccc(OC)c(OC)c1)[C@@H](C)Cc1ccc(OC)cc1 [Mebeverine hydrochloride] | > 46 µM
CN1CCc2c(c3ccccc3n2Cc2ccccc2)C1.CN1CCc2c(c3ccccc3n2Cc2ccccc2)C1.O=[S+]([O-])(O)c1cccc2c([S+](=O)([O-])O)cccc12 [Mebhydroline 1,5-naphtalenedisulfonate] | > 46 µM
CCOC(=O)c1c(C)n(C)c2ccc(O)cc12 [Mecarbinate] | > 46 µM
COC(=O)[C@@H](N)CS [Mecisteina] | > 46 µM
CN(C)[C@H]\1[C@@H]2[C@@H](O)[C@@H]\3C(=C)C4=C(Cl)C=CC(=C4C(=O)C3=C(\O)[C@@]2(O)C(=O)\C(=C1O)C(N)=O)O.OC(=O)C5=C(O)C=CC(=C5)[S+](O)([O-])=O [Meclocycline sulfosalicylate] | > 46 µM

Structure (SMILES) | IC50 of cell viability
Cc1ccc(Cl)c(Nc2ccccc2C(=O)[O-])c1Cl.O.[Na+] [Meclofenamic acid sodium salt monohydrate] | > 46 µM
CN(C)CCOC(=O)COc1ccc(Cl)cc1 [Meclofenoxate hydrochloride] | > 46 µM
CC/1=N/C2=CC=CC=C2C(=O)N1C3=C(Cl)C=CC=C3 [Mecloqualone] | > 46 µM
Cc1cccc(CN2CCN([C@@H](c3ccccc3)c3ccc(Cl)cc3)CC2)c1 [Meclozine dihydrochloride] | > 46 µM
C/C1=C2/N=C(C=C3N=C(/C(C)=C4\[N-][C@@H]([C@H](CC(N)=O)[C@]4(C)CCC(=O)NC[C@@H](C)OP(=O)([O-])O[C@@H]4[C@@H](O)[C@H](n5cnc6cc(C)c(C)cc65)O[C@@H]4CO)[C@@]4(C)N=C1[C@H](CCC(N)=O)[C@@]4(C)CC(N)=O)[C@H](CCC(N)=O)C3(C)C)[C@@H](CCC(N)=O)[C@@]2(C)CC(N)=O.[CH3-].[Co+3] [Mecobalamin] | > 46 µM
CN1CCN=C(c2ccccc2)c2cc(Cl)ccc21 [Medazepam] | > 46 µM
Cc1cccc(C(C)c2cnc[nH]2)c1C (configuration not stated) [Medetomidine hydrochloride] | > 46 µM
CC(=O)C1(O)CCC2C3CC(C)C4=CC(=O)CCC4(C)C3CCC21C (configuration not stated) [Medroxyprogesterone] | > 46 µM
C[C@H]/1C[C@H]2[C@H]3CC[C@@H](C(C)=O)[C@]3(C)C[C@@H](O)[C@@H]2[C@]4(C)CCC(=O)\C=C14 [Medrysone] | > 46 µM
Cc1cccc(Nc2ccccc2C(=O)O)c1C [Mefenamic acid] | > 46 µM
CC(=O)O[C@@]1(CC[C@@H]2[C@@H]3\C=C(C)/C4=C/C(=O)CC[C@@]4(C)[C@H]3CC[C@@]12C)C(C)=O [Megestrol acetate] | > 46 µM
CNC[C@H](O)[C@@H](O)[C@H](O)[C@H](O)CO [Meglumine] | > 46 µM
Cc1cnc(NC(=O)C2C(=O)c3ccccc3[S+](=O)([O-])N2C)s1 (configuration not stated) [Meloxicam] | > 46 µM
N[C@@H](Cc1ccc(N(CCCl)CCCl)cc1)C(=O)O [Melphalan] | > 46 µM
CC1(S(=O)(=O)[O-])CC(=O)c2ccccc2C1=O (configuration not stated) [Menadione sodium bisulfite] | > 46 µM
COc1ccc(C(=O)CCC(=O)O)c2ccccc12 [Menbutone] | > 46 µM
C[N+]1(C)CCC[C@H](OC(=O)C(O)(c2ccccc2)c2ccccc2)C1 [Mepenzolate bromide] | > 46 µM
COc1ccccc1OCC1CNC(=O)O1 (configuration not stated) [Mephenoxalone] | > 46 µM
CNC(C)(C)Cc1ccccc1 [Mephentermine hemisulfate] | > 46 µM
CCC1(c2ccccc2)C(=O)NC(=O)N(C)C1=O (configuration not stated) [Mephobarbital] | > 46 µM
[O-][n+]1cccc(CO)c1 [Mepiroxol] | > 46 µM

Structure (SMILES) | IC50 of cell viability
Cc1ccc2c(n1)Oc1ccc(C(C)C(=O)OCC(=O)N(C)C)cc1C2 (configuration not stated) [Mepranoprofen arbamel] | > 46 µM
C[C@H]1C[C@H]2[C@@H]3CCC4=CC(=O)C=C[C@]4(C)[C@H]3C(=O)C[C@]2(C)[C@@]1(O)C(=O)CO [Meprednisone] | > 46 µM
CCCC(C)(COC(N)=O)COC(N)=O [Meprobamate] | > 46 µM
CCCNC(C)(C)COC(=O)c1ccccc1 [Meprylcaine hydrochloride] | > 46 µM
CC[C@]1(c2cccc(O)c2)CCCCN(C)C1 [Meptazinol hydrochloride] | > 46 µM
c1ccc2c(c1)Sc1ccccc1N2CC1CN2CCC1CC2 (configuration not stated) [Mequitazine] | > 46 µM
O.O.O.[Na+].[Na+].O[Hg]C1=C2OC/3=C/C(=O)/C(=C\C3=C(\C2=CC(=C1[O-])Br)C4=C(C=CC=C4)C([O-])=O)Br [Merbromin] | > 46 µM
C[C@H](O)[C@H]1[C@@H]2[C@@H](C)\C(=C(/N2C1=O)C(O)=O)S[C@@H]3CN[C@H](C3)C(=O)N(C)C [Meropenem] | > 46 µM
Nc1ccc(O)c(C(=O)O)c1 [Mesalamine] | > 46 µM
COc1cc(CCN)cc(OC)c1OC [Mescaline] | > 46 µM
C[S+](=O)([O-])c1ccc(C(=O)C2C(=O)CCCC2=O)c([N+](=O)[O-])c1 [Mesotrione] | > 46 µM
CC12CCC(=O)CC1CCC1C2CCC2(C)C1CCC2(C)O (configuration not stated) [Mestanolone] | > 46 µM
C[C@]12C=CC(=O)C=C1CC[C@@H]1[C@@H]2CC[C@@]2(C)[C@H]1CC[C@]2(C)O [Metandienona] | > 46 µM
CC(C)NC[C@H](O)c1cc(O)cc(O)c1 [Metaproterenol sulfate, orciprenaline sulfate] | > 46 µM
C[C@H](N)[C@H](O)c1cccc(O)c1.O=C(O)[C@@H](O)[C@@H](O)C(=O)O.O=C(O)[C@@H](O)[C@@H](O)C(=O)O [Metaraminol bitartrate] | > 46 µM
O=C(NNCNNC(=O)c1ccncc1)c1ccncc1 [Metazida] | > 46 µM
CN(C)C(=N)NC(=N)N [Metformin hydrochloride] | > 46 µM
CC(=O)O[C@@H](C)C[N+](C)(C)C [Methacholine chloride] | > 46 µM
CN(C)[C@H]\1[C@@H]2[C@@H](O)[C@@H]\3C(=C)C4=C(C(=CC=C4)O)C(=O)C3=C(\O)[C@@]2(O)C(=O)\C(=C1O)C(N)=O [Methacycline hydrochloride] | > 46 µM
CO [Methanol] | > 46 µM
